This passage reports IC50 results from patent US8906909B2 (Curis, Inc., priority 2009, dated 2014).

The term IC50 denotes the concentration that inhibits the measured activity by half.

The test system of one experiment is HCT-118 cells. The experiment can be described thus: Cell proliferation assay Method A (ATPlite), HCT-118. The settings on record: 72 hours, read-out: antiproliferative activity IC50, HCT-118. The experiment is classed as cell-based. The essentials:
(§1)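 Cells seeded at 5,000–10,000 per well with graded compound concentrations and cultured 72 h in 0.5% fetal bovine serum. Growth inhibition read as cellular ATP content by firefly luciferase luminescence (ATPlite).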
(In general: Cellular ATP, detected with luciferase, serves as a proxy for viable cell number.)

The next experiment relates to H1993 cells. As to the kind of experiment: Cell proliferation assay Method A (ATPlite), H1993. The settings on record: Homo sapiens, NCI-H1993, 72 hours, read-out: antiproliferative activity IC50, H1993. The experiment is classed as cell-based. The method, boiled down: as §1
In the next experiment the target is T1, PI3Kδ (p110δ/p85α) (Homo sapiens, UniProt O00329).
T1 construct: N-terminal histidine-tagged recombinant full-length human p110δ; His tag (N); made in house; host or cells: Baculovirus-infected Sf9 insect cells
As to the kind of experiment: PI3Kδ fluorescence polarization assay. The format is biochemical. The settings on record: 10 μM ATP. As to the method: The proteins are purified by one-step affinity chromatography using glutathione-agarose. […] The reaction product was then mixed with a PIP3 detector protein and the fluorescent PIP3 probe. Polarization (mP) values decrease as fluorescent probe binding to the PIP3 detector is displaced by PIP3 produced by enzymatic activity and the amount of unbound fluorescent probe in the mixture increases. Polarization degrees (mP) value was determined using microplate reader with background subtraction.
(In fluorescence polarisation assays a small probe gives low polarisation when free and higher when bound to something large.)

The subject of another experiment is BT-474 cells. As to the kind of experiment: Cell proliferation assay Method A (ATPlite), BT-474. The experiment is classed as cell-based. The note with it: Homo sapiens, 72 hours, read-out: antiproliferative activity IC50, BT-474. The essentials: as §1
Experiment [1] has as its system HDACs (HeLa cell nuclear extracts). The experiment can be described thus: HDAC enzymatic activity, Biomol Color de Lys system. The experiment is classed as biochemical. The essentials:
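IC50 from sigmoidal dose-response fits of fluorescence (Ex 350–380, Em 440–460 nm). Compounds in DMSO dilution series incubated 1 h at 25 °C with HeLa nuclear extract HDACs and colorimetric substrate, pH 8.0 Tris/Cl buffer with NaCl, KCl, MgCl2, before developer termination.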

In another experiment the test system is WiDr cells. The experiment can be described thus: Cell proliferation assay Method B, WiDr. The format is cell-based. The settings on record: Homo sapiens, Colon, 72 hours, read-out: antiproliferative activity IC50, WiDr. Here is the method:
(§2) Cancer cell lines were plated at 5,000 to 10,000 per well in 96-well flat bottomed plates with various concentration of compounds. The cells were incubated with compounds for 72 hours in the presence of 0.5% of fetal bovine serum. Growth inhibition was accessed by adenosine triphosphate (ATP) content assay using Promega CellTiter-Glo kit. Promega CellTiter-Glo kit is an ATP monitoring system based on firefly luciferase. Briefly, 16 μl of mammalian cell lysis and substrate solution was added to 84 μl of culture medium per well to lyse the cells and stabilize the ATP. The mixture was shaken and incubated for 30 minutes and subsequently the luminescence was measured.

In a further experiment the test system is OVCAR-5 cells. As to the kind of experiment: Cell proliferation assay Method B, OVCAR-5. The experiment is classed as cell-based. The settings on record: Homo sapiens, Ovarian, 72 hours, read-out: antiproliferative activity IC50, OVCAR-5. As to the method: as §2
Another experiment relates to CFPAC-1 cells. The experiment can be described thus: Cell proliferation assay Method B, CFPAC-1. The settings on record: Homo sapiens, Pancreas, 72 hours, read-out: antiproliferative activity IC50, CFPAC-1. The experiment is classed as cell-based. Here is the method: as §2
In a further experiment the test system is SW1990 cells. As to the kind of experiment: Cell proliferation assay Method B, SW1990. The format is cell-based. The note with it: Homo sapiens, Pancreas, 72 hours, read-out: antiproliferative activity IC50, SW1990. As to the method: as §2
The next experiment deals with PC-3 cells. As to the kind of experiment: Cell proliferation assay Method B, PC-3. The format is cell-based. The settings on record: Homo sapiens, Prostate, 72 hours, read-out: antiproliferative activity IC50, PC-3. As to the method: as §2
The next experiment concerns LN-Cap cells. As to the kind of experiment: Cell proliferation assay Method B, LN-Cap. The format is cell-based. The note with it: Homo sapiens, LNCaP, Prostate, 72 hours, read-out: antiproliferative activity IC50, LN-Cap. Here is the method:
as §2

The next experiment deals with OPM-2 cells. The experiment can be described thus: Cell proliferation assay Method B, OPM-2. The note with it: Homo sapiens, Multiple Myeloma, 72 hours, read-out: antiproliferative activity IC50, OPM-2. The format is cell-based. Here is the method: as §2

T1 sequence (O00329 whole entry): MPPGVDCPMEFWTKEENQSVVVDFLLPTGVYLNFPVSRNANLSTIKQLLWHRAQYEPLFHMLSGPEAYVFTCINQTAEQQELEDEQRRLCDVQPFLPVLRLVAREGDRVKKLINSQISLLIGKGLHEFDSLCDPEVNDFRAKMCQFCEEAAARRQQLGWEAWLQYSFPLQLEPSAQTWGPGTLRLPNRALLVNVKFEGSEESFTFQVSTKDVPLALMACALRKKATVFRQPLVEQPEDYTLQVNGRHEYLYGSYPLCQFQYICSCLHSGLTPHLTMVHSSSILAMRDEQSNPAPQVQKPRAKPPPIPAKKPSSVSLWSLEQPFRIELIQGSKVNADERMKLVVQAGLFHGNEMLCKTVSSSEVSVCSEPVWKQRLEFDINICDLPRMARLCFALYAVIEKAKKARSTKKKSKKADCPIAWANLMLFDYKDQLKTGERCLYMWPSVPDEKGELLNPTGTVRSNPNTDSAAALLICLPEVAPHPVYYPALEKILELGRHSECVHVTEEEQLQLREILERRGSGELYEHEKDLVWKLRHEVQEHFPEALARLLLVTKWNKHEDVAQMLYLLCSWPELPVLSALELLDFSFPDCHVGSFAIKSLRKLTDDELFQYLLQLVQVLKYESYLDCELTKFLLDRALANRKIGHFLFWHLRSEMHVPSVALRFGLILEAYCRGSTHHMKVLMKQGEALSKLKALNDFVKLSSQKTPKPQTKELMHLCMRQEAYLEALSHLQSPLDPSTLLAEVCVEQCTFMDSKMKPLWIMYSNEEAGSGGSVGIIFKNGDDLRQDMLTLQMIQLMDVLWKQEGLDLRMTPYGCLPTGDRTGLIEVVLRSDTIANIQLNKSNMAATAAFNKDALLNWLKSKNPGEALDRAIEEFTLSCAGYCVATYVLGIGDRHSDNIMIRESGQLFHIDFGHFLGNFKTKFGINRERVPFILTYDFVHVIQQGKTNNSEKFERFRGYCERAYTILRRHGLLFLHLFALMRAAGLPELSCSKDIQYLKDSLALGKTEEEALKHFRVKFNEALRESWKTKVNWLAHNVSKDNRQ
T1 sequence (P27986 whole entry partner): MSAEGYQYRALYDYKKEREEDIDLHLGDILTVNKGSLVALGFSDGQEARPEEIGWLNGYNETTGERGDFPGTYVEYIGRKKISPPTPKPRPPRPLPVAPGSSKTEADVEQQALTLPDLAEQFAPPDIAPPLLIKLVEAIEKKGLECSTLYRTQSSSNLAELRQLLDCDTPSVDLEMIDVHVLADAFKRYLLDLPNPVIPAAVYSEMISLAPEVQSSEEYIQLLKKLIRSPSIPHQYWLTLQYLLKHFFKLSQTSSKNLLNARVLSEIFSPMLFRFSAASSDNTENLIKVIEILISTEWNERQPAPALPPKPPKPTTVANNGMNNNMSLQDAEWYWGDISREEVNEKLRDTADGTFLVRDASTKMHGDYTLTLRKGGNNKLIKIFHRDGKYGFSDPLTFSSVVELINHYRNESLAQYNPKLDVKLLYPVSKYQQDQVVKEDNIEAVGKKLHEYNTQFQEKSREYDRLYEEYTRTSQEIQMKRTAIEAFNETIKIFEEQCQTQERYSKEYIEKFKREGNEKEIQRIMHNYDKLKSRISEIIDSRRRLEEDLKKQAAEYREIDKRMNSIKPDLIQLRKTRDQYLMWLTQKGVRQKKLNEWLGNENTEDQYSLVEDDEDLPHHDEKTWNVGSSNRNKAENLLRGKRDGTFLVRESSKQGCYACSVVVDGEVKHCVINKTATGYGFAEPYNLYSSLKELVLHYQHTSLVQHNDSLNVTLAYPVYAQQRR

Take `CN(Cc1cc2nc(-c3ccc(N)cc3)nc(N3CCOCC3)c2s1)c1ncc(C(=O)NO)cn1` [Compound 150, 2-(((2-(4-aminophenyl)-4-morpholinothieno[3,2-d]pyrimidin-6-yl)methyl)(methyl)amino)-N-hydroxypyrimidine-5-carboxamide]: the IC50 (in the experiment with HCT-118 cells; in the experiment with H1993 cells; against PI3Kδ (p110δ/p85α); with BT-474 cells; in experiment [1]) was under 100 nM each time.
As to `CS(=O)(=O)N1CCN(Cc2cc3nc(-c4cccc5[nH]ncc45)nc(N4CCOCC4)c3s2)CC1` [GDC-0941, reference compound], the 50% inhibitory concentration (IC50) in the experiment with WiDr cells was over 10000 nM; in the experiment with OVCAR-5 cells, 100 to 1000 nM; with CFPAC-1 cells, over 10000 nM; with SW1990 cells, over 10000 nM; with PC-3 cells, 1000 to 10000 nM; in the experiment on LN-Cap cells, 100 to 1000 nM. Further, the concentration for half-maximal inhibition (IC50) in the experiment on OPM-2 cells lay within 100 to 1000 nM.
